In PubChem BioAssay (NCI) one finds TGI data, which are given here for 15 molecules.

Structures are written as SMILES.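 Five concentrations, 48 hours, 96-well plates. At the TGI there is no net growth.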

The test system of one assay is K-562 leukemia. The assay can be described thus: growth of human tumour cells (NCI), 48 h.
In turn, `O=C(CCCN1CCC2(CC1)OC(=O)N(c1ccccc1)C2=O)c1ccccc1` showed a TGI greater than 100 µM.

Consider `O=C1c2c(ccc3c2CCCC3)CC12Cc1ccc3c(c1C2=O)CCCC3`, for which the TGI is greater than 100 µM.

Regarding `CCOC(CN=C=S)OCC`, the TGI was greater than 10 µM.

`COc1cccc(-c2c(C#N)c(N)nc3c2CCS(=O)(=O)c2ccc(C)cc2-3)c1` yielded a TGI greater than 100 µM.

As for `CCOC(=O)c1c(N)sc2c1C(C(=O)OCC)CC2` (stereo not drawn), the TGI is greater than 100 µM.

As for `COC(=O)C(CC12CC3CC(CC(C3)C1)C2)NC(=O)C(N)CC(=O)O` (stereo not drawn), the TGI was greater than 100 µM.

In turn, `O=C1C(Cl)=C(OCCCCl)C(=O)c2c(O)ccc(O)c21` registered a TGI of 1.7 µM.

`NC(=O)NNc1nc2ccccc2c(=O)n1NC(=O)C(=O)Nc1ccc(Cl)cc1Cl` had a TGI greater than 100 µM.

With `Cc1nc2cccc(F)c2c(=O)n1C1CCCCNC1=O` (stereo not drawn), the TGI was greater than 10 µM.

`O=Nc1c(O)cc(Nc2ccc(Br)cc2)c2ccccc12` returned a TGI greater than 75 µM.

`C=CC/C=C/Cc1csc(C(C)(C)C(O)C/C=C/C(=C)CCNC(=O)OC)n1` (stereo not drawn) displayed a TGI greater than 81.5 µM.

Consider `CCN(CC)CCCNc1nc(=O)[nH]c(C)c1C(=O)Nc1cccc2cc3ccccc3cc12`, for which the TGI is greater than 100 µM.

For `c1ccc([P+](Cc2ccc(C[P+](c3ccccc3)(c3ccccc3)c3ccccc3)cc2)(c2ccccc2)c2ccccc2)cc1`, the TGI came out at 29.8 µM.

`O=S(=O)(O)c1ccc(O)c2ncc(Cl)cc12` showed a TGI greater than 100 µM.

Take `C[n+]1c2ccccc2c(C(=O)Nc2ccc(S(=O)(=O)Nc3ccnn3-c3ccccc3)cc2)c2ccccc21`: the TGI was greater than 100 µM.

A further assay concerns SW-620 colon. The assay can be described thus: growth of human tumour cells (NCI), 48 h.
As for `O=C(CCCN1CCC2(CC1)OC(=O)N(c1ccccc1)C2=O)c1ccccc1`, the TGI was greater than 100 µM.

Molecule `O=C1c2c(ccc3c2CCCC3)CC12Cc1ccc3c(c1C2=O)CCCC3` returned a TGI greater than 100 µM.

The molecule `CCOC(CN=C=S)OCC` registered a TGI greater than 10 µM.

Regarding `COc1cccc(-c2c(C#N)c(N)nc3c2CCS(=O)(=O)c2ccc(C)cc2-3)c1`, the TGI is greater than 100 µM.

For `CCOC(=O)c1c(N)sc2c1C(C(=O)OCC)CC2` (stereo not drawn), the TGI was greater than 100 µM.

`COC(=O)C(CC12CC3CC(CC(C3)C1)C2)NC(=O)C(N)CC(=O)O` (stereo not drawn) registered a TGI greater than 100 µM.

On to `O=C1C(Cl)=C(OCCCCl)C(=O)c2c(O)ccc(O)c21`, for which the TGI stood at 4.29 µM.

In turn, `NC(=O)NNc1nc2ccccc2c(=O)n1NC(=O)C(=O)Nc1ccc(Cl)cc1Cl` had a TGI greater than 100 µM.

`Cc1nc2cccc(F)c2c(=O)n1C1CCCCNC1=O` (stereo not drawn): the TGI is greater than 10 µM.

Consider `O=Nc1c(O)cc(Nc2ccc(Br)cc2)c2ccccc12`, for which the TGI was 35 µM.

In turn, `C=CC/C=C/Cc1csc(C(C)(C)C(O)C/C=C/C(=C)CCNC(=O)OC)n1` (stereo not drawn) registered a TGI greater than 46.4 µM.

Regarding `CCN(CC)CCCNc1nc(=O)[nH]c(C)c1C(=O)Nc1cccc2cc3ccccc3cc12`, the TGI is greater than 100 µM.

`c1ccc([P+](Cc2ccc(C[P+](c3ccccc3)(c3ccccc3)c3ccccc3)cc2)(c2ccccc2)c2ccccc2)cc1` displayed a TGI greater than 100 µM.

In the case of `O=S(=O)(O)c1ccc(O)c2ncc(Cl)cc12`, the TGI was greater than 100 µM.

For the molecule `C[n+]1c2ccccc2c(C(=O)Nc2ccc(S(=O)(=O)Nc3ccnn3-c3ccccc3)cc2)c2ccccc21`, the TGI was greater than 100 µM.

The next assay concerns HL-60(TB) leukemia. The assay can be described thus: growth of human tumour cells (NCI), 48 h.
`O=C(CCCN1CCC2(CC1)OC(=O)N(c1ccccc1)C2=O)c1ccccc1` returned a TGI greater than 100 µM.

As for `O=C1c2c(ccc3c2CCCC3)CC12Cc1ccc3c(c1C2=O)CCCC3`, the TGI was greater than 100 µM.

For `CCOC(CN=C=S)OCC`, the TGI is greater than 10 µM.

Molecule `COc1cccc(-c2c(C#N)c(N)nc3c2CCS(=O)(=O)c2ccc(C)cc2-3)c1` returned a TGI greater than 100 µM.

As for `CCOC(=O)c1c(N)sc2c1C(C(=O)OCC)CC2` (stereo not drawn), the TGI was greater than 100 µM.

Turning to `Cc1nc2cccc(F)c2c(=O)n1C1CCCCNC1=O` (stereo not drawn), the TGI is greater than 10 µM.

In the case of `O=Nc1c(O)cc(Nc2ccc(Br)cc2)c2ccccc12`, the TGI was 55.9 µM.

For `C=CC/C=C/Cc1csc(C(C)(C)C(O)C/C=C/C(=C)CCNC(=O)OC)n1` (stereo not drawn), the TGI is greater than 79.4 µM.

In turn, `CCN(CC)CCCNc1nc(=O)[nH]c(C)c1C(=O)Nc1cccc2cc3ccccc3cc12` returned a TGI greater than 100 µM.

In turn, `c1ccc([P+](Cc2ccc(C[P+](c3ccccc3)(c3ccccc3)c3ccccc3)cc2)(c2ccccc2)c2ccccc2)cc1` gave a TGI greater than 100 µM.

A further assay concerns NCI-H23 lung. The assay is described as follows: growth of human tumour cells (NCI), 48 h.
In turn, `O=C(CCCN1CCC2(CC1)OC(=O)N(c1ccccc1)C2=O)c1ccccc1` came in with a TGI greater than 100 µM.

As to `O=C1c2c(ccc3c2CCCC3)CC12Cc1ccc3c(c1C2=O)CCCC3`, the TGI was greater than 100 µM.

Take `CCOC(CN=C=S)OCC`: the TGI was greater than 10 µM.

As for `COc1cccc(-c2c(C#N)c(N)nc3c2CCS(=O)(=O)c2ccc(C)cc2-3)c1`, the TGI is greater than 100 µM.

`CCOC(=O)c1c(N)sc2c1C(C(=O)OCC)CC2` (stereo not drawn) yielded a TGI greater than 100 µM.

Turning to `COC(=O)C(CC12CC3CC(CC(C3)C1)C2)NC(=O)C(N)CC(=O)O` (stereo not drawn), the TGI is greater than 100 µM.

Take `O=C1C(Cl)=C(OCCCCl)C(=O)c2c(O)ccc(O)c21`: the TGI worked out at 5.53 µM.

For the molecule `NC(=O)NNc1nc2ccccc2c(=O)n1NC(=O)C(=O)Nc1ccc(Cl)cc1Cl`, the TGI is greater than 100 µM.

Molecule `Cc1nc2cccc(F)c2c(=O)n1C1CCCCNC1=O` (stereo not drawn) displayed a TGI greater than 10 µM.

In turn, `O=Nc1c(O)cc(Nc2ccc(Br)cc2)c2ccccc12` yielded a TGI of 3.47 µM.

Molecule `C=CC/C=C/Cc1csc(C(C)(C)C(O)C/C=C/C(=C)CCNC(=O)OC)n1` (stereo not drawn) showed a TGI greater than 100 µM.

For `CCN(CC)CCCNc1nc(=O)[nH]c(C)c1C(=O)Nc1cccc2cc3ccccc3cc12`, the TGI is greater than 100 µM.

Molecule `c1ccc([P+](Cc2ccc(C[P+](c3ccccc3)(c3ccccc3)c3ccccc3)cc2)(c2ccccc2)c2ccccc2)cc1` displayed a TGI greater than 100 µM.

`O=S(=O)(O)c1ccc(O)c2ncc(Cl)cc12` registered a TGI greater than 100 µM.

`C[n+]1c2ccccc2c(C(=O)Nc2ccc(S(=O)(=O)Nc3ccnn3-c3ccccc3)cc2)c2ccccc21` had a TGI greater than 100 µM.

The test system of the next assay is NCI-H522 lung. The assay can be described thus: growth of human tumour cells (NCI), 48 h.
In turn, `O=C(CCCN1CCC2(CC1)OC(=O)N(c1ccccc1)C2=O)c1ccccc1` showed a TGI greater than 100 µM.

`O=C1c2c(ccc3c2CCCC3)CC12Cc1ccc3c(c1C2=O)CCCC3` returned a TGI greater than 100 µM.

Turning to `CCOC(CN=C=S)OCC`, the TGI is greater than 10 µM.

For the molecule `COc1cccc(-c2c(C#N)c(N)nc3c2CCS(=O)(=O)c2ccc(C)cc2-3)c1`, the TGI was greater than 100 µM.

As to `COC(=O)C(CC12CC3CC(CC(C3)C1)C2)NC(=O)C(N)CC(=O)O` (stereo not drawn), the TGI is greater than 100 µM.

Turning to `NC(=O)NNc1nc2ccccc2c(=O)n1NC(=O)C(=O)Nc1ccc(Cl)cc1Cl`, the TGI is greater than 100 µM.

`Cc1nc2cccc(F)c2c(=O)n1C1CCCCNC1=O` (stereo not drawn): the TGI is greater than 10 µM.

In turn, `O=Nc1c(O)cc(Nc2ccc(Br)cc2)c2ccccc12` came in with a TGI greater than 100 µM.

As for `C=CC/C=C/Cc1csc(C(C)(C)C(O)C/C=C/C(=C)CCNC(=O)OC)n1` (stereo not drawn), the TGI is greater than 100 µM.

With `CCN(CC)CCCNc1nc(=O)[nH]c(C)c1C(=O)Nc1cccc2cc3ccccc3cc12`, the TGI is greater than 100 µM.

On to `c1ccc([P+](Cc2ccc(C[P+](c3ccccc3)(c3ccccc3)c3ccccc3)cc2)(c2ccccc2)c2ccccc2)cc1`, for which the TGI is greater than 100 µM.

In a further assay the test system is U251 CNS. The assay can be described thus: growth of human tumour cells (NCI), 48 h.
Molecule `O=C(CCCN1CCC2(CC1)OC(=O)N(c1ccccc1)C2=O)c1ccccc1` came in with a TGI greater than 100 µM.

`O=C1c2c(ccc3c2CCCC3)CC12Cc1ccc3c(c1C2=O)CCCC3` registered a TGI greater than 100 µM.
